Results published in patent US20210254101A1, “METHODS FOR TREATING SPINAL CORD INJURY” (THE CHILDREN'S MEDICAL CENTER CORPORATION, priority 2018, published 2021).

Tested on: mice with staggered lesions
Assay: Cortical stimulation with EMG responses recorded in the TA muscle
Format: in vivo, mouse
Conditions: injured mice, compared to controls; FIG. 5D-5F
Method: To test directly if the treated spinal cord could more efficiently relay descending inputs to the lumbar spinal cord, cortical stimulation was performed and recorded EMG responses in the TA muscle (FIG. 5D). […] Thus, KCC2 treatment facilitates the transmission of descending inputs from the brain to the lumbar spinal cord.
For epidural stimulation and EMG recording, a customized head plate was secured over the skull, and a monopolar stimulation electrode (SSM33A05, World Precision Instruments, Inc.) was positioned epidurally over the representative hindlimb area of left motor cortex. A train of electrical stimuli (0.2 ms biphasic pulse, 100 ms pulse train, 20 Hz, 0.5-1.5 mA) was generated by pulse generator and isolator (Master 9 and Iso-Flex, A.M.P.I.), and delivered during quadrupedal standing in fully awake condition. Testing was performed without and with electrochemical stimulations. Peak-to-peak amplitude and latency of evoked responses were computed from EMG recordings of the right TA muscle.

Which “amplitude of evoked EMG signals in TA muscle” value does the source give for `O=C1N=C(N2CCCCN2)S/C1=C\c1ccc(F)cc1OC(=O)N1CCCC1` [CLP290, [5-Fluoro-2-[(Z)-(2-hexahydropyridazin-1-yl-4-oxo-thiazol-5-ylidene)methyl]phenyl] pyrrolidine-1-carboxylate] here?
The value was “significantly increased”.
